Among the data in patent publication US7465736B2, “Azole methylidene cyanide derivatives and their use as protein kinase modulators” (Laboratoires Serono S.A., priority 2002, dated 2008) are IC50 values, retold here.

A word on the IC50: it is the point on the concentration scale where inhibition reaches its midpoint. Lower therefore signals higher potency.

Structures are written as SMILES. Some results are limits rather than exact numbers.

One experiment has as its target rat JNK3 (Rattus norvegicus, UniProt P49187). The experiment in a line: JNK3 in vitro assay (33P incorporation into biotinylated GST-c-Jun, SPA beads). Type of experiment: biochemical. The settings on record: in vitro potency on rat JNK3. The procedure: The compounds of the present invention are inhibitors of JNKs. The phosphorylation of c-jun by JNK2 or JNK3 may be determined by monitoring the incorporation of ^33P into c-jun following the protocol below. The inhibitory activity of the compounds according to formula I, towards c-jun phosphorylation through JNK, is determined by calculating phosphorylation activity in the presence or absence of compounds according to formula I.
JNK3 and/or -2 assays are performed in 96 well MTT plates: incubation of 0.5 μg of recombinant, pre-activated GST-JNK3 or GST-JNK2 with 1 μg of recombinant, biotinylated GST-c-Jun and 2 μM ^33γ-ATP (2 nCi/μl), in the presence or absence of compounds according to formula I and in a reaction volume of 50 μl containing 50 mM Tris-HCl, pH 8.0; 10 mM MgCl2; 1 mM Dithiothreitol, and 100 μM NaVO4. The test compound according to formula I is used in concentrations of 10, 3, 033, 0.1, 0.033, 0.01, 0.0033, 0.001 μM. The incubation is performed for 120 min. at R.T and stopped upon addition of 200 μl of a solution containing 250 μg of Streptavidine-coated SPA beads (Amersham, Inc.)*, 5 mM EDTA, 0.1% Triton X-100 and 50 μM ATP, in phosphate saline buffer.
After incubation for 60 minutes at RT, beads are sedimented by centrifugation at 1500×g for 5 minutes, resuspended in 200 μl of PBS containing 5 mM EDTA, 0.1% Triton X-100 and 50 μM ATP and the radioactivity measured in a scintillation β counter, following sedimentation of the beads as described above.

For another experiment, the target named is human GSK3 β (Homo sapiens, UniProt P49841). Briefly: GSK3β in vitro assay (33P incorporation into phospho GS2 peptide, scintillation counting). It counts as biochemical. The settings on record: in vitro potency on human GSK3 β. On the procedure: GSK3β Assay (see Naerum et al., Bioorg. Med. Chem. Lett 12 p. 1525-1528 (2002))
human GSK3 β, sequence (P49841 whole entry): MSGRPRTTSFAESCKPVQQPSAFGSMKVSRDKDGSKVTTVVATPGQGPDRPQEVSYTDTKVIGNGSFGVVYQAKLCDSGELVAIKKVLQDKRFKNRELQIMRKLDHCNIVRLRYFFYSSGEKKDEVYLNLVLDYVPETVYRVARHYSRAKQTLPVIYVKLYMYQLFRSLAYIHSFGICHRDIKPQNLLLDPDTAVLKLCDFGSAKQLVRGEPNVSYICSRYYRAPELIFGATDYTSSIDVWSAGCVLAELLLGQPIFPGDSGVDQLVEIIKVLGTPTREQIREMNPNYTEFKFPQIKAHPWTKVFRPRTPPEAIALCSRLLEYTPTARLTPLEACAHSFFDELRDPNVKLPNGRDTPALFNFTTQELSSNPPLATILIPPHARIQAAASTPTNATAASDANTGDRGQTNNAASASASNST
In a final reaction volume of 25 μl, the protein kinase GSK3β (h) (5-10 mU) is incubated with 8 mM MOPS at a pH of 7.0, in 0.2 mM EDTA, as well as 20 μM of the peptide […](p)EDEEE (SEQ ID NO: 1; a phosphor GS2 peptide being the GSK3 substrate in this assay), 10 mM Mg Acetate and [γ-^33P-ATP] (Specific activity approx. 500 cpm/pmol, concentration as required). The reaction is initiated by the addition of Mg^2+[γ-^33P-ATP]. The test compound according to formula I is used in concentrations of 100, 25, 5, 1.25, 0.315, 0.078, 0.0195, 0.0049, 0.0012, 0.00031 μM. After incubations for 40 minutes at room temperature, the reaction is stopped by the addition of 5 μl of a 3% phosphoric acid solution. 10 μl of the reaction is then spotted onto a P30 filtermat and washed three times for 5 minutes in 50 mM phosphoric acid and once in methanol prior to drying and the degree of phosphorylation of the substrate is determined by scintillation counting.

rat JNK3, sequence (P49187 whole entry): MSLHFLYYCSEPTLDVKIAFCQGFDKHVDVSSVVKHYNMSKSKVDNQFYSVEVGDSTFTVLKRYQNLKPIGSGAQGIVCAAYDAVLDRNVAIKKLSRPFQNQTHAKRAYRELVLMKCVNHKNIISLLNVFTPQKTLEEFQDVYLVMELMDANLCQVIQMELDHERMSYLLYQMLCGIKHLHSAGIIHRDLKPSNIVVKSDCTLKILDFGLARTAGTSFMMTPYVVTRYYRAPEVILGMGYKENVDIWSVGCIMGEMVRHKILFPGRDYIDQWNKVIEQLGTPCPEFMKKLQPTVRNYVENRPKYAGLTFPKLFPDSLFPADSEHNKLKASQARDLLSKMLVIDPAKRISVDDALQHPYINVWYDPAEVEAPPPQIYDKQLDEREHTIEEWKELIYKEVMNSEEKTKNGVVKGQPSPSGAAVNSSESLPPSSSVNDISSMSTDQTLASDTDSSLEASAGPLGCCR

Turning to `CCC1=CS/C(=C(/C#N)c2ccnc(NC3CCN(S(C)(=O)=O)CC3)n2)N1`, the IC50 at rat JNK3 is < 10 µM.

With `N#C/C(=C1\NC(C(=O)O)=CS1)c1ccnc(NCCCN2CCCC2=O)n1` [2-[cyano(2-{[3-(2-oxopyrrolidin-1-yl)propyl]amino}pyrimidin-4-yl)methylene]-2,3-dihydro-1,3-thiazole-4-carboxylic acid], the IC50 on human GSK3 β and against rat JNK3 was < 10 µM each time.

`CCC1=CS/C(=C(/C#N)c2ccnc(NCCc3ccc(S(N)(=O)=O)cc3)n2)N1` [4-[2-({4-[cyano(4-ethyl-1,3-thiazol-2(3H)-ylidene)methyl]pyrimidin-2-yl}amino)ethyl]benzenesulfonamide]: the IC50 on human GSK3 β and at rat JNK3 was < 10 µM in each case.

In the case of `N#C/C(=C1\NC(c2ccccc2)=CS1)c1ccnc(NCCNc2ccc(C#N)cn2)n1` [6-{[2-({4-[cyano(4-phenyl-1,3-thiazol-2(3H)-ylidene)methyl]pyrimidin-2-yl}amino)ethyl]amino}nicotinonitrile], on rat JNK3, the IC50 was < 10 µM.

Regarding `CC1=CS/C(=C(/C#N)c2ccnc(N3CCC(Nc4ncccn4)CC3)n2)N1` [(4-methyl-1,3-thiazol-2(3H)-ylidene){2-[4-(pyrimidin-2-ylamino)piperidin-1-yl]pyrimidin-4-yl}acetonitrile], on human GSK3 β, the IC50 was < 10 µM.

With `N#C/C(=C1\NC(c2ccccc2Cl)=CS1)c1ccnc(NC2CC2)n1` [[4-(2-chlorophenyl)-1,3-thiazol-2(3H)-ylidene][2-(cyclopropylamino)pyrimidin-4-yl]acetonitrile], the concentration for half-maximal inhibition (IC50) against human GSK3 β is < 10 µM.

`CN(C)c1nc(/C(C#N)=C2/NC(c3ccccc3)=CS2)nc(N2CCCC3CCCCC32)n1` (centres unmarked) [[4-(dimethylamino)-6-(octahydroquinolin-1(2H)-yl)-1,3,5-triazin-2-yl](4-phenyl-1,3-thiazol-2(3H)-ylidene)acetonitrile]: the IC50 on human GSK3 β is < 10 µM.

Regarding `CC1=CS/C(=C(/C#N)c2cc(NCc3ccco3)ncn2)N1` [{6-[(2-furylmethyl)amino]pyrimidin-4-yl}(4-methyl-1,3-thiazol-2(3H)-ylidene)acetonitrile], the half-inhibitory concentration (IC50) against human GSK3 β is < 10 µM.

`CC1=CS/C(=C(/C#N)c2cc(N(C)c3ccccc3)nc(NCCc3cccnc3)n2)N1` [{6-[methyl(phenyl)amino]-2-[(2-pyridin-3-ylethyl)amino]pyrimidin-4-yl}(4-methyl-1,3-thiazol-2(3H)-ylidene)acetonitrile]: the IC50 at human GSK3 β is < 10 µM.
